Assay results as given in patent publication US11950617B2, “Remediation of toxins in biorefinery process streams” (priority 2017, dated 2024).

Legend:
[1] = Laboratory treatment of corn ethanol syrup with bisulfite in a Parr 4560 reactor; DON measured by NEOGEN VERATOX for DON 2/3 kit
Method: Encouraged by these initial test results, further testing was performed utilizing a design of experiments to determine an equation modeling the effect of time, temperature, and SBS in the treatment of syrup. Syrup from a corn ethanol biorefinery was obtained and processed in the laboratory. All thermal treatments were performed utilizing a Parr 4560 reactor and a combined total of 70 g of syrup and SBS per reaction. Reaction conditions were from 85° C. to 115° C.; for 2 to 6 hours; and 0 to 0.05 g sodium bisulfite per dry gram syrup. The results from this study indicated a correlation between the SBS loading and the reduction in syrup DON. The model predicts a greater than 85% reduction in syrup DON is likely if treatment in a commercial process syrup tank is utilized. It was calculated that at a plant that is currently producing DDGS with 14.5 ppm DON with a 95% reduction in syrup DON would produce DDGS with 4.6 ppm DON.
(§1) Syrup from a corn ethanol biorefinery was obtained and processed in the laboratory. Treatment was performed utilizing a Parr 4560 reactor and a combined total of 70 g of syrup and SBS per reaction. The reaction condition was carried out at 50° C. for 120 minutes and varying amounts of sodium bisulfite per dry gram syrup. The DON was measured by NEOGEN™ VERATOX™ for DON 2/3 kit.
as §1, with “85°” for “50°”, “30” for “120”, “to 180 minutes using 0.048 grams” for “and varying amounts of”
Syrup from a corn ethanol biorefinery was obtained and processed in the laboratory using a Parr 4560 reactor and combined with either 0.048 grams of SBS or ammonium bisulfite per dry gram of syrup. Ammonium bisulfite was a 65% aqueous solution of 95% ammonium bisulfite and 5% potassium bisulfite. The doses of the two reagents used were molar equivalent bisulfite doses. The reaction condition was carried out at 85° C. for 30, 60 and 90 minutes.

[2] = DON analysis of DDGS sources and mixed diets of the pig trial; conditions: treated vs untreated DDGS
Description: A treated mycotoxin in which the DON levels in DON-contaminated DDGS were reduced by the method described in Example 5 (1.5 gallons per minute of a 38% aqueous solution of SBS was supplied continuously into the feed line of the syrup tank) and samples of dried DDGS were collected, analyzed and tested for its effect on pig growth.
A total of 247 growing pigs (55.3±4.6 lb.) were housed at a wean-to-finish facility, randomly allotted to 18 pens (13-14 pigs/pen) containing one 3-hole feeder 2 free-access nipple drinkers, and assigned to one of 3 experimental diets: control, DONDDGS, and treated-DDGS. All experimental diets were corn/soybean meal based containing 30% DDGS (low DON, DON contaminated, and treated DON DDGS, respectively; Table 1).
All diets met or exceeded nutrient requirements for growing pigs based on NRC (2012) and provided ad libitum. Experimental diets were fed for 21 days. Samples of the DDGS and corn used in the diets were analyzed for DON. Samples of the mixed diets were collected at day 0 and 21 and analyzed for proximate analysis and DON.

In the case of `O=S([O-])O.[Na+]` [SBS, sodium bisulfite], the “DON in the treated syrup as SBS dose increased (FIG. 4)” value ([1]; 50° C., 120 minutes, varying amounts of sodium bisulfite per dry gram syrup) is reported as “reduced”, the “DON in the treated syrup (FIG. 5)” value ([1]; 85° C., 30 minutes dwell time, 0.048 grams sodium bisulfite per dry gram syrup) is reported as “less than 1 ppm” and the “reduction in syrup DON predicted by the model” value ([1]; design-of-experiments model (time, temperature, SBS), treatment in a commercial process syrup tank) is reported as “greater than 85%”. For the same molecule, the “DON reduction in the syrup stream” value ([1]; syrup treated with SBS at process temperatures for extended time periods) was “greater than 85%” and the “reduction of DON content in DON-DDGS” value [2] was 37%.
